Laboratory results: patent publication US20160145247A1, “Aminomethyl-Biaryl Derivatives Complement Factor D inhibitors and uses thereof” (NOVARTIS AG, priority 2013, published 2016)

These molecules were tested against T1, factor D (Homo sapiens, UniProt P00746) (assay: factor D inhibition assay of Biological Example 2).
T1 construct: made in house; host or cells: E. coli
T1 sequence (P00746 26-253): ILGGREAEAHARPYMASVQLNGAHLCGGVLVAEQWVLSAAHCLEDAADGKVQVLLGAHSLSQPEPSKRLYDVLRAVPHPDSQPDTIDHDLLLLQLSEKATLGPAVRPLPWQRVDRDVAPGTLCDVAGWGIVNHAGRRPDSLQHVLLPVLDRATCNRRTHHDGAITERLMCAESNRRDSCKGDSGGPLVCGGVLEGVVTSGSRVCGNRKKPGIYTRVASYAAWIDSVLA
Assay type: biochemical
An IC50 of 11 nM was found for CNC(=O)c1cc(COc2cc(C(=O)Nc3ccccc3CC(=O)O)cc(-c3cccc(CN)c3)c2)ccn1 [Example 70, 2-(2-(3′-(Aminomethyl)-5-((2-(methylcarbamoyl)pyridin-4-yl)methoxy)-[1,1′-biphenyl]-3-ylcarboxamido)phenyl)acetic acid] in this work.
An IC50 of 13 nM was found for NCc1cccc(-c2cc(O)cc(C(=O)Nc3ccccc3CC(=O)O)n2)c1 [Example 55, 2-(2-(6-(3-(Aminomethyl)phenyl)-4-hydroxypicolinamido)phenyl)acetic acid] in this work.
An IC50 of 6 nM was found for CCc1cc(COc2ccccc2CC(=O)O)cc(-c2cccc(CN)c2)c1 [Example 104, 2-(2-((3′-(aminomethyl)-5-ethyl-[1,1′-biphenyl]-3-yl)methoxy)phenyl)acetic acid] in this work.
An IC50 of 12 nM was found for NCc1cc(F)cc(-c2cc(NCC3CCOCC3)cc(C(=O)Nc3ccccc3CC(=O)O)c2)c1 [Example 79-E] in this work.
An IC50 of 21 nM was found for C[C@@H](N)c1cccc(-c2cc(CO)cc(COc3ccccc3CC(=O)O)c2)c1 [Example 116-A] in this work.
An IC50 of 1130 nM was found for NCc1cccc(-c2nc(C(=O)Nc3ccccc3CC(=O)O)c[nH]2)c1 [Example 43, 2-(2-(2-(3-(Aminomethyl)phenyl)-1H-imidazole-4-carboxamido)phenyl)acetic acid] in this work.
An IC50 of 1260 nM was found for NC(CO)c1cccc(-c2cccc(C(=O)Nc3ccccc3CC(=O)O)c2)c1 (racemic) [Example 86, (±)-2-(2-(3′-(1-Amino-2-hydroxyethyl)-[1,1′-biphenyl]-3-ylcarboxamido)phenyl)acetic acid] in this work.
An IC50 of 11 nM was found for CCOc1cc(COc2ccccc2CC(=O)O)cc(-c2cccc(C(N)CF)c2F)c1 (centres unmarked) [Example 258-C, 2-(2-((3′-(1-amino-2-fluoroethyl)-5-ethoxy-2′-fluoro-[1,1′-biphenyl]-3-yl)methoxy)phenyl)acetic acid] in this work.
An IC50 of 39 nM was found for C[C@@H](N)c1cccc(-c2cc(COc3ccccc3CC(=O)O)cc(OCC3CCCN3)c2)c1 (stereo partly drawn) [Example 267, 2-(2-((3′-((R)-1-aminoethyl)-5-(pyrrolidin-2-ylmethoxy)-[1,1′-biphenyl]-3-yl)methoxy)phenyl)acetic acid] in this work.
An IC50 of 65 nM was found for CCC[C@@H](N)c1cccc(-c2cc(COc3ccccc3CC(=O)O)cc(NC[C@@H]3CCCO3)c2)c1F [Example 199-C] in this work.
An IC50 of 4 nM was found for C[C@@H](N)c1cccc(-c2cc(COc3ccccc3CC(=O)O)cc(COC(F)F)c2)c1F [Example 120-X] in this work.
An IC50 of 228 nM was found for N[C@H](CF)c1cccc(-c2cc(CNCC(F)(F)F)cc(COc3ccccc3CC(=O)O)c2)c1 [Example 284-B, (S)-2-(2-((3′-(1-amino-2-fluoroethyl)-5-(((2,2,2-trifluoroethyl)amino)methyl)-[1,1′-biphenyl]-3-yl)methoxy)phenyl)acetic acid] in this work.
An IC50 of 13 nM was found for C[C@@H](N)c1cccc(-c2cc(COc3ccccc3CC(=O)O)cc(C(C)(C)O)c2)c1F [Example 120-G] in this work.
An IC50 of 6 nM was found for NC(CF)c1cccc(-c2cccc(COc3ccccc3CC(=O)O)c2)c1F (centres unmarked) [Example 196-F] in this work.
An IC50 of 9 nM was found for CC(O)c1cc(COc2ccccc2CC(=O)O)cc(-c2cccc([C@H](N)CO)c2)c1 (mixture of isomers) [116-E a), 2-(2-((3′-((S)-1-amino-2-hydroxyethyl)-5-(1-hydroxyethyl)-[1,1′-biphenyl]-3-yl)methoxy)phenyl)acetic acid] in this work.
An IC50 of 17 nM was found for COC(C)c1cc(COc2ccccc2CC(=O)O)cc(-c2cccc([C@H](N)CO)c2)c1 (some centres unmarked) [Example 120-E] in this work.
An IC50 of 4 nM was found for CC(C)Cn1cc(-c2cc(COc3ccccc3CC(=O)O)cc(-c3cccc(CN)c3)c2)cn1 [Example 209-D] in this work.
An IC50 of 7 nM was found for C[C@@H](N)c1cccc(-c2cc(O)cc(COc3ccccc3CC(=O)O)c2)c1F [Example 214-R] in this work.
An IC50 of 3120 nM was found for NCc1cc(F)cc(-c2cccc(C(=O)Nc3cccc(Cl)c3CC(=O)O)c2)c1 [Example 21-F] in this work.
An IC50 of 2540 nM was found for CNC(CO)c1cccc(-c2cccc(COc3ccccc3CC(=O)O)c2)c1 (racemic) [Example 171, (±)-2-(2-((3′-(2-Hydroxy-1-(methylamino)ethyl)-[1,1′-biphenyl]-3-yl)methoxy)phenyl)acetic acid] in this work.
An IC50 of 8 nM was found for NC(CF)c1cccc(-c2cccc(COc3ccccc3CC(=O)O)c2)c1F (centres unmarked) [Example 215, 2-(2-((3′-(1-amino-2-fluoroethyl)-2′-fluoro-[1,1′-biphenyl]-3-yl)methoxy)phenyl)acetic acid] in this work.
An IC50 of 3 nM was found for N[C@H](CO)c1cccc(-c2cc(F)cc(COc3ccccc3CC(=O)O)c2)c1 [Example 115-A] in this work.
An IC50 of 5 nM was found for COCCNc1cc(COc2ccccc2CC(=O)O)cc(-c2cccc([C@H](N)CO)c2)c1 [Example 84, (S)-2-(2-((3′-(1-Amino-2-hydroxyethyl)-5-((2-methoxyethyl)amino)-[1,1′-biphenyl]-3-yl)methoxy)phenyl)acetic acid] in this work.
An IC50 of 15 nM was found for N[C@H](CO)c1cccc(-c2cc(COc3ccccc3CC(=O)O)ccc2F)c1 [Example 122, (S)-2-(2-((3′-(1-Amino-2-hydroxyethyl)-6-fluoro-[1,1′-biphenyl]-3-yl)methoxy)phenyl)acetic acid] in this work.
An IC50 of 190 nM was found for NCc1cc(Cl)cc(-c2cccc(COc3ccccc3CC(=O)O)c2)c1 [Example 291, 2-(2-((3′-(aminomethyl)-5′-chloro-[1,1′-biphenyl]-3-yl)methoxy)phenyl)acetic acid] in this work.
An IC50 of 54 nM was found for CCC[C@@H](N)c1cccc(-c2cc(COc3ccccc3CC(=O)O)cc(-c3cnn(C)c3)c2)c1F [Example 203, (R)-2-(2-((3′-(1-Aminobutyl)-2′-fluoro-5-(1-methyl-1H-pyrazol-4-yl)-[1,1′-biphenyl]-3-yl)methoxy)phenyl)acetic acid] in this work.
An IC50 of 9 nM was found for NCc1cccc(-c2cc(Cl)cc(COc3ccccc3CC(=O)O)c2)c1 [Example 102-B, 2-(2-((3′-(Aminomethyl)-5-chloro-[1,1′-biphenyl]-3-yl)methoxy)phenyl)acetic acid] in this work.
An IC50 of 24 nM was found for Cc1cc(-c2cccc([C@H](N)CO)c2)cc(COc2ccccc2CC(=O)O)n1 [Example 185, (S)-2-(2-((4-(3-(1-Amino-2-hydroxyethyl)phenyl)-6-methylpyridin-2-yl)methoxy)phenyl)acetic acid] in this work.
An IC50 of 9 nM was found for N[C@H](CO)c1cccc(-c2cc(COc3ccccc3CC(=O)O)c3c(c2)OCO3)c1 [Example 255, (S)-2-(2-((6-(3-(1-amino-2-hydroxyethyl)phenyl)benzo[d][1,3]dioxol-4-yl)methoxy)phenyl)acetic acid] in this work.
An IC50 of 55 nM was found for C[C@@H](N)c1cccc(-c2cc(CO)cc(COc3ccccc3CC(=O)O)c2)c1F [Example 120-B] in this work.
An IC50 of 17 nM was found for C[C@@H](N)c1cccc(-c2cc(NC[C@H]3CCCO3)c3c(c2)C(Oc2ccccc2CC(=O)O)CCO3)c1F (some centres unmarked) [Example 216-W] in this work.
An IC50 of 9 nM was found for CC(NCc1cc(COc2ccccc2CC(=O)O)cc(-c2cccc(CN)c2)c1)C(F)(F)F (centres unmarked) [Example 208-F] in this work.
An IC50 of 14 nM was found for Cc1ccc(S(=O)(=O)n2ncc3c(COc4ccccc4CC(=O)O)cc(-c4cccc([C@H](N)CO)c4)cc32)cc1 [Example 186, (S)-2-(2-((6-(3-(1-Amino-2-hydroxyethyl)phenyl)-1-tosyl-1H-indazol-4-yl)methoxy)phenyl)acetic acid] in this work.
An IC50 of 8 nM was found for CCOc1cc(COc2ccccc2CC(=O)O)cc(-c2cccc([C@H](N)CO)c2)c1 [Example 115-B] in this work.
An IC50 of 9 nM was found for Nc1cc(COc2ccccc2CC(=O)O)cc(-c2cccc([C@H](N)CO)c2)c1 [Example 133, (S)-2-(2-((5-amino-3′-(1-amino-2-hydroxyethyl)-[1,1′-biphenyl]-3-yl)methoxy)phenyl)acetic acid] in this work.
An IC50 of 263 nM was found for CCC[C@@H](N)c1cccc(-c2cccc(COc3c(F)cccc3CC(=O)O)c2)c1 [Example 194, (R)-2-(2-((3′-(1-Aminobutyl)-[1,1′-biphenyl]-3-yl)methoxy)-3-fluorophenyl)acetic acid] in this work.
An IC50 of 148 nM was found for CCC[C@@H](N)c1cccc(-c2cc(COc3ccccc3CC(=O)O)cc(N3CCCC3)c2)c1F [Example 199-A] in this work.
An IC50 of 34 nM was found for CCC[C@@H](N)c1cccc(-c2cccc(COc3ccccc3CC(=O)O)c2)c1 [Example 190-E] in this work.
An IC50 of 22 nM was found for C[C@H](N)c1cccc(-c2cccc(COc3ccccc3CC(=O)O)c2)c1F [Example 142-H] in this work.
An IC50 of 436 nM was found for COC[C@@H](N)c1cccc(-c2ccnc(COc3ccccc3CC(=O)O)c2)c1 [Example 184, (S)-2-(2-((4-(3-(1-amino-2-methoxyethyl)phenyl)pyridin-2-yl)methoxy)phenyl)acetic acid] in this work.
An IC50 of 3 nM was found for C[C@@H](N)c1cccc(-c2cc(COc3ccccc3CC(=O)O)cc(OCc3ccncc3)c2)c1F [Example 214-F] in this work.
An IC50 of 122 nM was found for C[C@@H](O)[C@@H](N)c1cccc(-c2cccc(COc3ccccc3CC(=O)O)c2)c1 [Example 190-G] in this work.
An IC50 of 9 nM was found for C[C@@H](N)c1cccc(-c2cc(COc3ccccc3CC(=O)O)cc(N(C)CC3CC3)c2)c1F [Example 245, (R)-2-(2-((3′-(1-aminoethyl)-5-((cyclopropylmethyl)(methyl)amino)-2′-fluoro-[1,1′-biphenyl]-3-yl)methoxy)phenyl)acetic acid] in this work.
An IC50 of 5250 nM was found for N[C@@H](CCO)c1cccc(-c2cccc(C(=O)Nc3ccccc3CC(=O)O)c2)c1 [Example 89, (S)-2-(2-(3′-(1-Amino-3-hydroxypropyl)-[1,1′-biphenyl]-3-ylcarboxamido)phenyl)acetic acid] in this work.
An IC50 of 6 nM was found for NCc1cccc(-c2cccc(COc3ccccc3C(NC(=O)C3CC3c3ccccc3)C(=O)O)c2)c1 (single isomer, unassigned) [Example 297-B, 2-(2-((3′-(aminomethyl)-[1,1′-biphenyl]-3-yl)methoxy)phenyl)-2-(2-phenylcyclopropanecarboxamido)acetic acid] in this work.
An IC50 of 709 nM was found for CCOC(=O)Cc1ccccc1NC(=O)c1cc(NC[C@H]2CCCO2)cc(-c2cc(F)cc(CN)c2)c1 [Example 85, (R)-Ethyl 2-(2-(3′-(aminomethyl)-5′-fluoro-5-(((tetrahydrofuran-2-yl)methyl)amino)-[1,1′-biphenyl]-3-ylcarboxamido)phenyl)acetate] in this work.
An IC50 of 117 nM was found for NCc1cccc(-c2ccc(-c3cccc(CN)c3)c(C(=O)Nc3ccccc3CC(=O)O)n2)c1 [Example 56-B, 2-(2-(3,6-bis(3-(Aminomethyl)phenyl)picolinamido)phenyl)acetic acid] in this work.
